Patent US20090048216A1, “INTRAVENOUS AND ORAL DOSING OF A DIRECT-ACTING AND REVERSIBLE P2Y12 INHIBITOR” (Portola Pharmaceuticals, Inc., priority 2007, published 2009)
“Also recorded” adds a separate entry of the source.

Experiments:
P2Y12 receptor = target: T1, P2Y12 receptor (Homo sapiens, UniProt Q9H244); assay: platelet ADP receptor binding assay (ARB): inhibition of [3H]2-MeS-ADP binding to platelets; details: whole platelets
T1 construct: endogenous in cells; host or cells: apyrase-washed human platelets (outdated from hospital blood banks, or fresh)
T1 sequence (Q9H244 whole entry): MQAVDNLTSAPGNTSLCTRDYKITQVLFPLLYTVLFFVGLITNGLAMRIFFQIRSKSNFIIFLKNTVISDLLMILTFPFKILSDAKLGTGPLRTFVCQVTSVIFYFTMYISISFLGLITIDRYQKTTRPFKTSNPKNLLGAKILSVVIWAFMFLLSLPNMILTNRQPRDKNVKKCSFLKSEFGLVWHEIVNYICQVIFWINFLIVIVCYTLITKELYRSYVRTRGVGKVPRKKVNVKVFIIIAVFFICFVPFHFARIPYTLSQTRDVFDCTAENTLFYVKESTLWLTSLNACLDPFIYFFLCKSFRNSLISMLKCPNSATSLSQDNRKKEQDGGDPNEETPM
Description: 1. The Ability of Candidate Molecules to Inhibit the Binding of [3H]2-MeS-ADP to the P2Y12 Receptor on Platelets was Determined Using a Radioligand Binding Assay.
Utilizing this assay the potency of inhibition of such compounds with respect to [^3H]2-MeS-ADP binding to whole platelets is determined. Under the conditions described in II (3) below, the binding of [^3H]2-MeS-ADP is solely due to the interaction of this ligand with the P2Y12 receptor, in that all the specific binding measured in this assay is compatable with a P2Y12 antagonist (i.e., the specific binding is reduced to background levels by competition with an excess of P2Y12 antagonist, with no competition of binding when a P2Y1 antagonist is pre-incubated with the platelet preparation). […]
A platelet ADP receptor binding assay (ARB) using the tritiated potent agonist ligand [3H]2-MeS-ADP (Jantzen, H. M. et al. (1999) Thromb. Hemost. 81:111-117) has been adapted to the 96-well microtiter format. […] Total binding is determined in the absence of test compounds. […] The platelet-bound radioactivity on the filtermats is determined in a scintillation counter (Microbeta 1450, Wallac Inc., Gaithersburg, Md.). Specific binding is determined by subtraction of non-specific binding from total binding, and specific binding in the presence of test compounds is expressed as % of specific binding in the absence of test compound dilutions. […]

[1] = system: ADP-induced human platelet aggregation; assay: Inhibition of ADP-mediated platelet aggregation in vitro (PRP assay); type: cell-based; details: human platelet-rich plasma
Description: For preparation of human platelet-rich plasma for aggregation assays, human venous blood was collected from healthy, drug-free volunteers into 0.38% sodium citrate (0.013 M, pH 7.0 final). […] This preparation of PRP can subsequently be used for aggregation assays in either a 96-well plate or standard cuvette aggregometry.
For cuvette light transmittance aggregation assays, serial dilutions (1:3) of test compounds were prepared in 100% DMSO in a 96 well V-bottom plate (final DMSO concentration in the cuvette was 0.6%). […] The aggregation reaction is recorded for ˜5 min, and maximum extent of aggregation is determined by the difference in extent of aggregation at baseline, compared to the maximum aggregation that occurs during the five minute period of the assay. Inhibition of aggregation was calculated as the maximum aggregation observed in the presence of inhibitor, compared to that in the absence of inhibitor. […]
Inhibition of ADP-dependent aggregation was also determined in 96-well flat-bottom microtiter plates using a microtiter plate shaker and plate reader similar to the procedure described by Frantantoni et al., Am. […] The OD of the samples is then determined at 450 nm using a microtiter plate reader (Softmax, Molecular Devices, Menlo Park, Calif.) resulting in the 0 minute reading. […]

[2] = one week, 40° C., 75% RH
[3] = Accelerated stability of solid forms
[4] = Pharmacokinetics of single oral liquid doses in human subjects; type: in vivo
[5] = system: collagen-induced platelet thrombosis; assay: Real Time Thrombosis Profiler (RTTP) ex vivo after oral dosing; type: in vivo, human; details: 6 hours post dosing
Description: Rhodamine 6G (1.25 μg/ml final concentration) was added to the blood, mixed by gentle inversion, and the tube was incubated at ˜37° C. for 20 min. Subsequently, the rhodamine-labeled blood was perfused through a rectangular glass capillary coated with type III collagen at an arterial shear rate (˜1600 sec^−1) and the extent of thrombus formation on the collagen surface was monitored for 5-7 min by the accumulation of fluorescently-labeled platelets using a video camera. The extent of the overall thrombotic process (e.g., accumulation of fluorescently-labeled platelets over time) was determined by analysis of various parameters derived from the curve generated from mean fluorescence intensity vs time (sec). These parameters may include slope, area under the curve, and endpoint.
In yet another part of the study, the effects of the oral treatments in the human subjects was investigated using a Real Time Thrombosis Profiler (RTTP) as the ex vivo assay method. The set up and principles of operation of the RTTP are depicted in FIGS. 26A, B, and C. There was a dose-dependent decrease in the RTTP collagen-induced platelet thrombosis for the subjects given the compound. A dose of 100 mg of the compound produced about a 70% inhibition. A dose of 30 mg of the compound produced a 53 percent inhibition.

[6] = Tolerability and safety of single intravenous doses in human subjects; type: in vivo
Source text: To determine the tolerability, the pharmacokinetic (PK) and pharmacodynamic (PD) effects of single ascending IV doses of a compound of Formula I (the potassium salt of polymorph B, or PRT128) in healthy subjects, ages 18-50.

[7] = Bleeding time (Surgicutt device) after IV infusion; type: in vivo, human
Description: Bleeding time was measured using the Surgicutt device at 25 min (Cmax) and 8 hrs post dose. […] However, this effect was reversed by 8 hrs post dosing.

[8] = Pharmacokinetics of single IV doses in human subjects; type: in vivo; details: IV 1-40 mg
[9] = system: ADP induced platelet aggregation
Description: (§1) Human venous blood was collected in a plastic syringe and immediately transferred to a plastic tube containing a fixed amount of anticoagulant (e.g., 5 μM (final) of a proprietary Portola anticoagulant C921-78 (a factor Xa inhibitor (see, Betz A, Wong P W, Sinha U. Inhibition of factor Xa by a peptidyl-alpha-ketothiazole involves 2 steps: evidence for a stabilizing conformational change. Biochemistry. 1999; 38: 14582-14591)) and mixed gently by inversion. Platelet-rich plasma (PRP) was prepared by centrifugation of whole blood at 160×g for 20 minutes at room temperature. The PRP layer was removed, transferred to a new tube, and the platelet count was adjusted, if necessary, to achieve a platelet concentration of ˜3×10^8 platelets/ml using platelet-poor plasma (PPP). PPP is prepared by centrifugation of the remaining blood sample (after removal of PRP) for 20 minutes at 800×g. This preparation of PRP was used for standard light transmittance aggregometry assays. A fixed volume of PRP (0.3-0.5 mls) was transferred to an aggregometry cuvette, and the same volume of PPP was used to blank the machine. While stirring the PRP, a sufficient volume of adenosine diphosphate (ADP, Sigma-Aldrich) was added to achieve a final concentration of 10 μM in the cuvette, and the change in light transmittance was recorded for 6 minutes. The maximum extent of aggregation as well as the final (6 min after initiation of the aggregation reaction) extent of aggregation was determined from each reaction.
(§2) The compound of Formula I was the potassium salt (Polymorph B) dissolved in water.

[10] = system: ADP-induced platelet aggregation; details: IV, at the higher dosages
Description: (§3) Human venous blood was collected in a plastic syringe and immediately transferred to a plastic tube containing a fixed amount of anticoagulant (e.g., 5 μM (final) of a proprietary Portola anticoagulant C921-78 (a factor Xa inhibitor (see, Betz A, Wong P W, Sinha U. Inhibition of factor Xa by a peptidyl-alpha-ketothiazole involves 2 steps: evidence for a stabilizing conformational change. Biochemistry. 1999; 38: 14582-14591)) and mixed gently by inversion. Platelet-rich plasma (PRP) was prepared by centrifugation of whole blood at 160×g for 20 minutes at room temperature. The PRP layer was removed, transferred to a new tube, and the platelet count was adjusted, if necessary, to achieve a platelet concentration of ˜3×10^8 platelets/ml using platelet-poor plasma (PPP). PPP is prepared by centrifugation of the remaining blood sample (after removal of PRP) for 20 minutes at 800×g. This preparation of PRP was used for standard light transmittance aggregometry assays. […] While stirring the PRP, a sufficient volume of adenosine diphosphate (ADP, Sigma-Aldrich) was added to achieve a final concentration of 10 μM in the cuvette, and the change in light transmittance was recorded for 6 minutes. The maximum extent of aggregation as well as the final (6 min after initiation of the aggregation reaction) extent of aggregation was determined from each reaction.

[11] = system: ADP induced platelet aggregation; assay: animal or person; details: Homo sapiens, po, 0.1 h, read-out: IC50 of inhibition of ADP-induced platelet aggregation vs plasma concentration (PK-PD), oral study, aggregation at 6 minutes, ex vivo
Description: as §1, §2

[12] = system: ADP-induced platelet aggregation; assay: animal or person; details: Homo sapiens, iv, 0.1 h, read-out: IC50 for inhibition of ADP-induced late (6 min) platelet aggregation vs plasma concentration (Emax model)
Description: as §3

[13] = Tolerability and safety of single oral doses in human subjects; details: oral doses 10-800 mg
Description: A single center, double-blind, placebo-controlled study of a compound of Formula I was conducted in human subjects. The compound of Formula I was the potassium salt (Polymorph B) dissolved in water.

[14] = system: collagen induced platelet aggregation; assay: Ex vivo collagen-induced platelet aggregation after oral dosing, with or without aspirin; type: in vivo, human; details: aspirin alone, predosed for three days at 325 mg/day
Source text: In a further aspect of the study, the effect of aspirin and the compound together on the inhibition of collagen-induced platelet aggregation was investigated.

CNc1cc2[nH]c(=O)n(-c3ccc(NC(=O)NS(=O)(=O)c4ccc(Cl)s4)cc3)c(=O)c2cc1F [Example 2]
IC50 (P2Y12 receptor): < 50 nM
IC50 [1]: < 10 µM

CNc1cc2[nH]c(=O)n(-c3ccc(NC(=O)[N-]S(=O)(=O)c4ccc(Cl)s4)cc3)c(=O)c2cc1F.[K+] [Form A]
change in chemical purity in accelerated stability test [2]: No change
stability of solid form [3]: stable

CNc1cc2[nH]c(=O)n(-c3ccc(NC(=O)[N-]S(=O)(=O)c4ccc(Cl)s4)cc3)c(=O)c2cc1F.[K+] [PRT128]
plasma PK increases with dose ([4]; oral, 10-100 mg): dose proportional
half-life ([4]; plasma, single oral liquid dose, read-out: terminal half-life (converted)): ~720 min
inhibition of RTTP collagen-induced platelet thrombosis ([5]; oral 30 mg): 53%
inhibition of RTTP collagen-induced platelet thrombosis ([5]; oral 100 mg): ~70%
ECG ([6]; IV 1-40 mg): No significant changes
serious adverse events ([6]; IV 1-40 mg): No serious adverse events
standard clinical chemistry, hematology and coagulation labs ([6]; IV 1-40 mg): no clinically significant changes or trends
vital signs ([6]; IV 1-40 mg): No significant changes or trends
tolerability ([6]; IV 1-40 mg over 20 minutes, human): well tolerated
tolerability ([6]; IV bolus up to 45 mg): equally well tolerated
dose at which pre-defined bleeding time stopping criteria (>20 min and 3 fold prolongation from baseline) were reached [7]: 40 mg
bleeding time ([7]; 25 min (Cmax)): prolonged dose-dependently
bleeding time effect at 8 hrs ([7]; 8 hrs post dose, potassium salt): reversed; also recorded: returned to baseline
bleeding time at potential clinically therapeutic anti-thrombotic level of 40% ([7]; listed as studied compound, potassium salt): without substantially affecting bleeding time
bleeding time at potential clinically therapeutic anti-thrombotic level of 40% ([7]; potassium salt): did not increase bleeding time
drug exposure with dose [8]: dose proportional
inhibition of ADP-induced platelet aggregation ([9]; oral 100 mg, four hours post dose): 60%
IC50 of inhibition of ADP-induced platelet aggregation vs plasma concentration (PK-PD) ([9]; oral study, aggregation at 6 minutes, ex vivo, listed as potassium salt, potassium salt): ≈ 450 ng/ml
maximum inhibition of ADP-induced platelet aggregation measured at six minutes ([9]; oral, at the higher dosages): 100%
dose achieving maximum effect (maximum amplitude aggregation) ([9]; oral, four hour time point): about 200 mg
maximum inhibition of ADP-induced platelet aggregation measured at six minutes [10]: 100%
IC50 [11]: ~0.451 µg/mL
IC50 [12]: 0.601 µg/mL
serious adverse events [13]: no serious adverse events
tolerability [13]: well tolerated

CNc1cc2[nH]c(=O)n(-c3ccc(NC(=O)[N-]S(=O)(=O)c4ccc(Cl)s4)cc3)c(=O)c2cc1F.[Na+] [amorphous form of the sodium salt]
change in chemical purity in accelerated stability test [2]: No change

ortho-acetylsalicylic acid [aspirin]
reduction in collagen induced platelet aggregation assay [14]: ~40%
